Experimental data published in patent US9686984B2, “Macrocyclic picolinamides as fungicides” (DOW AGROSCIENCES LLC, priority 2014, dated 2017).
Like-named read-outs stand apart in the source and are kept apart here.

Experiments:
Assay type in all cases: in vivo
Zymoseptoria tritici = assay: Leaf Blotch of Wheat (SEPTTR) disease control on wheat seedlings; conditions: for pest or weed control at 121.5 g/ha: Low Volume (121.5 g/H); for pest or weed control at 100 µg/mL: High Volume (100 ppm)
Outline: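 Compounds in acetone/water (1:9, 110 ppm Triton X-100) sprayed to run-off on Yuma wheat seedlings at first-leaf stage, with Septoria tritici spores inoculated before or after treatment. Plants held at 100% RH (dark then lighted dew chamber, 20° C), then in greenhouse at 20° C; % control from disease severity on 1st leaves versus untreated.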

Erysiphe cichoracearum = assay: Powdery Mildew of Cucumber (ERYSCI) disease control; conditions: 100 ppm, 1 Day Protectant
Description: Technical grades of materials were dissolved in acetone, which were then mixed with nine volumes of water containing 110 ppm Triton X-100. The fungicide solutions were applied onto wheat seedlings using an automated booth sprayer to run-off. All sprayed plants were allowed to air dry prior to further handling. All fungicides were evaluated using the aforementioned method for their activity vs. all target diseases, unless stated otherwise. Wheat leaf blotch and brown rust activity were also evaluated using track spray applications, in which case the fungicides were formulated as EC formulations, containing 0.1% Trycol 5941 in the spray solutions. Wheat plants (variety Yuma) were grown from seed in a greenhouse in 50% mineral soil/50% soil-less Metro mix until the first leaf was fully emerged, with 7-10 seedlings per pot. These plants were inoculated with an aqueous spore suspension of Septoria tritici either prior to or after fungicide treatments. After inoculation the plants were kept in 100% relative humidity (one day in a dark dew chamber followed by two to three days in a lighted dew chamber at 20° C.) to permit spores to germinate and infect the leaf. The plants were then transferred to a greenhouse set at 20° C. for disease to develop. When disease symptoms were fully expressed on the 1st leaves of untreated plants, infection levels were assessed on a scale of 0 to 100 percent disease severity. Percent disease control was calculated using the ratio of disease severity on treated plants relative to untreated plants. Example F: Evaluation of Fungicidal Activity: Powdery Mildew of Cucumber (Erysiphe cichoracearum; Bayer Code […]) Cucumber seedlings (variety Bush Pickle) were grown in soil-less Metro mix, with one plant per pot, and used in the test when 12 to 14 days old. Plants were inoculated with a spore suspension 24 hr following fungicide treatments. After inoculation the plants remained in the greenhouse set at 20° C. until disease was fully expressed. […]

Puccinia triticina = assay: Wheat Brown Rust (PUCCRT) disease control on wheat seedlings; conditions: for pest or weed control at 121.5 g/ha: Low Volume (121.5 g/H); for pest or weed control at 100 µg/mL: High Volume (100 ppm)
Outline: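 Yuma wheat seedlings at the first-leaf stage sprayed to run-off (acetone solution in nine volumes of water, 110 ppm Triton X-100) or track-sprayed as EC with 0.1% Trycol 5941. Inoculation with P. triticina before or after treatment, then overnight dark dew at 22° C., 100% RH, then a 24° C. greenhouse. Percent control from severity vs untreated.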

Venturia inaequalis = assay: Apple Scab (VENTIN) disease control; conditions: 100 ppm, 1 Day Protectant
Uncinula necator = assay: Grape Powdery Mildew (UNCINE) disease control; conditions: 100 ppm, 1 Day Protectant
Phakopsora pachyrhizi = assay: Asian Soybean Rust (PHAKPA) disease control; conditions: 25 ppm
Description: Example H: Evaluation of Fungicidal Activity: Asian Soybean Rust (Phakopsora pachyrhizi; Bayer Code […]) Technical grades of materials were dissolved in acetone, which were then mixed with nine volumes of water containing 0.011% Tween 20. The fungicide solutions were applied onto soybean seedlings using an automated booth sprayer to run-off. All sprayed plants were allowed to air dry prior to further handling. Soybean plants (variety Williams 82) were grown in soil-less Metro mix, with one plant per pot. Two weeks old seedlings were used for testing. Plants were inoculated either 3 days prior to or 1 day after fungicide treatments. Plants were incubated for 24 h in a dark dew room at 22° C. and 100% relative humidity then transferred to a growth room at 23° C. for disease to develop. Disease severity was assessed on the sprayed leaves.

[1] = 24 h, 1 Day Protectant, read-out: SEPTTR disease control, 1 DP
[2] = 72 h, 3 Day Curative, read-out: SEPTTR disease control, 3 DC
[3] = 24 h, 1 Day Protectant, read-out: PUCCRT disease control, 1 DP
[4] = 72 h, 3 Day Curative, read-out: PUCCRT disease control, 3 DC

SMILES | pest or weed control at 121.5 g/ha (Zymoseptoria tritici; [1]) [%] | pest or weed control at 121.5 g/ha (Zymoseptoria tritici; [2]) [%] | ERYSCI disease control, 1DP (Erysiphe cichoracearum) | pest or weed control at 121.5 g/ha (Puccinia triticina; [3]) [%] | pest or weed control at 121.5 g/ha (Puccinia triticina; [4]) [%] | pest or weed control at 100 µg/mL (Zymoseptoria tritici; [1]) [%] | pest or weed control at 100 µg/mL (Zymoseptoria tritici; [2]) [%] | VENTIN disease control, 1DP (Venturia inaequalis) | pest or weed control at 100 µg/mL (Puccinia triticina; [3]) [%] | pest or weed control at 100 µg/mL (Puccinia triticina; [4]) [%] | UNCINE disease control, 1DP (Uncinula necator) | PHAKPA disease control, 1DP (Phakopsora pachyrhizi; 1 Day Protectant) | PHAKPA disease control, 3DC (Phakopsora pachyrhizi; 3 Day Curative)
CCCC[C@H]1OCC[C@H](NC(=O)c2nccc(OC)c2OC(C)=O)C(=O)O[C@@H](C)[C@@H]1Cc1ccccc1 [Compound 2] | > 70 | > 70 | B (≦70) | > 70 | > 70 |  |  |  |  |  |  |  | 
COc1ccnc(C(=O)N[C@H]2CCO[C@H](Cc3ccccc3)[C@@H](Cc3ccccc3)[C@H](C)OC2=O)c1OC(C)=O [Compound 3] | > 70 | > 70 | B (≦70) | > 70 | > 70 |  |  |  |  |  |  |  | 
CCC[C@H]1OCC[C@H](NC(=O)c2nccc(OC)c2OCOC(C)=O)C(=O)O[C@@H](C)[C@@H]1Cc1ccccc1 [Compound 17] | > 70 | > 70 | B (≦70) | > 70 | > 70 | > 70 | > 70 | B (≦70) | > 70 | > 70 | A (>70) | A (>70) | A (>70)
